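All cell lines were grown in 96-well plates and treated with compound for 48 hours. TGI marks complete inhibition of growth.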
How the values were obtained:
Experiment in all cases: inhibition of tumour cell growth, NCI panel, 48 h
786-0 renal = system: 786-0 renal
XF 498 CNS = system: XF 498 CNS
DMS 273 small cell lung = system: DMS 273 small cell lung
SN12K1 renal = system: SN12K1 renal
HOP-18 NSCLC = system: HOP-18 NSCLC
SNB-78 CNS = system: SNB-78 CNS
BT-549 breast = system: BT-549 breast
LXFL 529 NSCLC = system: LXFL 529 NSCLC
DMS 114 small cell lung = system: DMS 114 small cell lung

Question: `C/C(=N\NC(=S)NCc1ccccc1)c1nc2ncccc2[nH]1` was tested. Which TGI (786-0 renal) did it give?
Answer: > 100 µM

Question: What does the source list for `O=C(CCN1CCOCC1)C(=Cc1ccccc1)C(=O)CCN1CCOCC1`?
Answer: TGI (XF 498 CNS): 12.8 µM; TGI (DMS 273 small cell lung): 26 µM; TGI (SN12K1 renal): 5.68 µM; TGI (HOP-18 NSCLC): 30.6 µM; TGI (SNB-78 CNS): 8.5 µM

Question: Which TGI (BT-549 breast) does the source give for `COc1cc2oc(=O)ccc2cc1CC=C(C)C` here?
Answer: 81 µM

Question: Which TGI (XF 498 CNS) does the source give for `CC(=O)NNc1nc(C)c(C(=O)NNC(=O)C(=O)Nc2c(C)cccc2C(C)(C)C)s1` here?
Answer: > 100 µM

Question: What about the TGI (DMS 273 small cell lung) of the same molecule?
Answer: > 100 µM

Question: And the TGI (LXFL 529 NSCLC)?
Answer: > 100 µM

Question: And the TGI (SNB-78 CNS)?
Answer: > 100 µM

Question: Which TGI (DMS 114 small cell lung) does the source give for `COC(=O)C1=C(C)N2CCOC2CC1c1ccccc1` (stereo unspecified) here?
Answer: > 100 µM

Question: And the TGI (LXFL 529 NSCLC)?
Answer: > 100 µM

Question: How did the TGI (BT-549 breast) turn out when `CN(C)CCN(C(=Nc1ccccc1)N1CCCC1)c1ccccc1` was run?
Answer: > 100 µM

Question: How did the TGI (BT-549 breast) turn out when `Cc1ccc(S(=O)(=O)NNC2Oc3cc4c(cc3C(c3ccccc3O)C2C)OCO4)cc1` (stereo unspecified) was run?
Answer: 27.3 µM

Question: With `COc1cc(C(=O)Nc2cc(C(N)=O)cc(OC)c2OC)cc(NC(=O)/C=C/c2ccccc2)c1OC` as the molecule, how does the TGI (BT-549 breast) read?
Answer: > 100 µM

Source: PubChem BioAssay (NCI)
